Experimental data taken from paper PMC3996151, “Safety and pharmacological characterization of the molecular tweezer CLR01 – a broad-spectrum inhibitor of amyloid proteins’ toxicity” (BMC Pharmacology & Toxicology, 2014).
Values joined by “and” are separate entries in the source; they are usually repeats but may differ in a detail not shown here. Identical values can stand only once.

Assay: Blood-brain barrier permeability with 3H-CLR01 IV (scintillation counting of blood and brain)
Assay type: in vivo, mouse
Settings: for Blood radioactivity levels, % of the injected levels: 0.5 h following IV injection; for Brain radioactivity after double injection compared to one injection: two 11.86-μg/g injections
Protocol: The following groups of mice were used for CLR01 BBB penetration studies: 3×Tg and the corresponding WT mice at 2-m, 12-m, and 22 - 24-m (hereafter referred to as 22-m) of age. The groups were: 2-m WT, 2-m Tg, 12-m WT, 12-m Tg, 22-m WT, 22-m Tg. Mice were administered ^3H-CLR01 intravenously. Two μCi per gram of mouse body weight, which are equal to 11.86 μg/g of CLR01 in which ^3H-CLR01 made up 10% of the total CLR01, were injected into the jugular vein. Blood and brain were collected at 0.5, 1, 3, 8, 24, or 72 h (not all time points were collected for all groups, see the Results section). For times ≤ 3 h, mice were anesthetized by IP injection of ketamine and xylazine. The mice remained anesthetized following the injection until the specified time point, at which point they were given a lethal dose of pentobarbital. Then, blood was collected via a cardiac puncture, and the brain harvested with or without a perfusion step Pharmacokinetics of CLR01 in vivo. For time points 8–72 h, mice were not anesthetized and ^3H-CLR01 was injected into the tail vein. This change was due to the difficulty of keeping mice anesthetized for longer than 3 h. No differences were observed between mice given anesthesia and jugular vein injections and mice receiving tail vein injections.
Euthanasia procedures were the same as described above. For all mice, one hemisphere of the brain and 100–350 μl of blood were separately digested following instructions from Perkin-Elmer (document: Scintillation Cocktails and Consumables) with 1 ml Solvable (Perkin-Elmer, Waltham, MA), added to Ultima Gold Liquid Scintillation Cocktail (Perkin-Elmer) and read in a Triathler Liquid Scintillation Counter model 425–034, (Hidex, Turku, Finland). Brain permeability percentage was calculated as counts per minute (CPM) per g of brain relative to CPM per ml of blood. The data are an average of values from three mice per genotype/age/time combination.
For CLR01 transport-saturation studies using 5× the CLR01 dose, ^3H-CLR01 was kept at 10% of the total CLR01 mixture and a total of 59.3 μg of CLR01 (10 μCi) per g of mouse body weight was injected IV (22-m WT 5× dose). For CLR01 brain-accumulation studies, two 11.86-μg/g injections were administered at equal time intervals (22-m WT 2× inj). In these experiments, mice were injected at time = 0 and at t = ½ of euthanasia time. For example, in the original, single-injection experiments, a mouse would receive an injection at t = 0 and then be euthanized at t = 1 h. In this experiment, a mouse received one injection at t = 0, a second injection at t = 0.5 h, and then was euthanized at t = 1 h.
In experiments using ^3H-CLR01, urine was collected when possible over the period between injection and euthanasia. […] We could not normalize the radioactivity because the amount of urine in the bladder prior to injection and the volume produced during the experiment could not be calculated.
To correct for the radioactivity associated with blood-borne ^3H-CLR01 in the brain vasculature, we performed both perfusion and subtraction analyses. In perfusion experiments, WT and 3×Tg mice at each of the three ages analyzed (n = 3 per group) were perfused with phosphate buffered saline following euthanasia. Perfusion lasted for either 5 min or until the liver changed color from a red to yellow, whichever was longer. In other experiments, mice were not perfused, but radioactivity associated with 10 μl of blood per g of brain [29, 30] was calculated based on brain weight and blood radioactivity levels and subtracted from brain radioactivity levels. At 1 h post injection, perfusion-corrected brain values were statistically similar to subtraction-corrected brain values (Figure 5). […]

## O=P(O)(O)Oc1c2c(c(OP(=O)(O)O)c3c1C1CC3c3cc4c(cc31)C1CC4c3ccccc31)C1CC2c2cc3c(cc21)C1CC3c2ccccc21 [CLR01]
0.5 - 72 h post-injection, IV
  Brain radioactivity levels over time: did not change significantly up to 72 h post-injection
1× CLR01 dose, 1 h, 22-m old WT mice
  Brain penetration, % of blood: 0.86 ± 0.30%
5× CLR01 dose (59.3 μg/g), 1 h, 22-m old WT mice
  Brain penetration, % of blood: 0.97 ± 0.28%
5× CLR01 dose, 22-m old WT mice, on average
  Absolute amount of radioactivity in the brain relative to 1× dose: 5 times
12-m old 3×Tg mice
  Blood radioactivity levels, % of the injected levels: 40 ± 6%
12-m old WT mice
  Blood radioactivity levels, % of the injected levels: 39 ± 13%
1 h, 22-m old WT mice
  Brain radioactivity after double injection compared to one injection: 3.3 ×
1 h following IV injection, 2-m old 3×Tg mice
  Brain-radioactivity levels as a percentage of blood-radioactivity levels (CPM/g)/(CPM/ml): 3.09 ± 0.55%
1 h following IV injection, 2-m old WT mice
  Brain-radioactivity levels as a percentage of blood-radioactivity levels (CPM/g)/(CPM/ml): 2.68 ± 0.31%
1 h following IV injection, 12-m old 3×Tg mice
  Brain-radioactivity levels as a percentage of blood-radioactivity levels (CPM/g)/(CPM/ml): 1.43 ± 0.17%
1 h following IV injection, 12-m old WT mice
  Brain-radioactivity levels as a percentage of blood-radioactivity levels (CPM/g)/(CPM/ml): 2.11 ± 0.69%
1 h following IV injection, 24-m old 3×Tg mice
  Brain-radioactivity levels as a percentage of blood-radioactivity levels (CPM/g)/(CPM/ml): 1.45 ± 0.28%
1 h following IV injection, 24-m old WT mice
  Brain-radioactivity levels as a percentage of blood-radioactivity levels (CPM/g)/(CPM/ml): 0.86 ± 0.17%
1 h following IV injection, depending on age and genotype (WT versus 3×Tg)
  Brain-radioactivity levels as a percentage of blood-radioactivity levels, over all groups: 0.86–3.09% and 1 - 3% and ~ 2%
3 h, 22-m old WT mice
  Brain radioactivity after double injection compared to one injection: 1.6 ×
8 h, 22-m old WT mice
  Brain radioactivity after double injection compared to one injection: 1.9 ×
After 8 h, IV
  Radioactivity observed at 0.5 h remaining in the blood: 5 - 10%
Single IV injection 11.86 μg/g
  Brain CLR01 radioactivity levels per g of brain, most group × time combinations: 10,000 - 20,000 CPM/g
Urine collected between injection and euthanasia
  Route of excretion (urine radioactivity, qualitative): excreted through the urine
